Results taken from patent US8021658B2, “Alternative splice forms of proteins as basis for multiple therapeutic modalities” (Thomas Jefferson University, priority 2001, dated 2011).
Bridges are numbered along the chain shown (N, C = ends). Roman numbers before positions name the chains, in order. Where no end group is shown, it is not given here.

Tests used:
[1] = test system: HC2 20d2/c tumor cells pulsed with the immunizing peptide; assay: ELISPOT assay (anti-interferon-gamma) of cytotoxic T lymphocyte activity of splenocytes from immunized mice; assay type: cell-based; conditions: FIG. 5; for CTL response compared with mouse treated with SEQ ID NO: 82 (EGFRvIII): mice which had undergone tumor regression
Description: Briefly, the ELISPOT method is performed by coating a cell culture dish or well with a cytokine capture antibody, for example an anti-interferon gamma antibody. The unoccupied spots on the culture dish or well are then blocked with a non-specific binding protein. Target cells, for example tumor cells, that endogenously synthesize the alternative splice form which has been used to stimulate PBLs are added to the culture dish or well. Alternatively, target cells can be pulsed with the peptide of interest. Activated PBLs are then added to the culture dish or well. If the activated PBLs specifically lyse the target cells, the PBLs secrete cytokines such as interferon-gamma, which is captured by the cytokine capture antibody initially coated onto the culture dish or well. A secondary antibody that recognized a different epitope of interferon gamma is then used to detect the presence of any interferon-gamma secreted by the PBLs and captured by the cytokine capture antibody. The secondary antibody can be conjugated with a detectable label, such as fluorescent or radioactive label. Identification of peptides of the invention which induce MHC-restricted cytotoxic T lymphocyte responses by the ELISPOT method is shown in Example 5 below.
Splenocytes from mice inoculated with GM-CSF only were used as a control (“control”). HC2 20d2/c tumor cells pulsed with 10 micrograms/ml of the immunizing peptide, or mouse serum albumin (for splenocytes from GM-CSF only treated animals) were used as the target cells for the treatment and control splenocytes, respectively. Untreated HC2 20d2/c tumor cells were used as negative control target cells.
The splenocytes were incubated at various ratios (from 10:1 to 2:1) with target cells in triplicate, and lytic events were identified with an ELISPOT assay using anti-interferon-gamma antibody as the cytokine capture antibody. The specific spots per 10^6 cells were quantitated using the lytic events from untreated target cells as the background, and then performing linear regression analysis.

HC2 20d2/c tumor cells = assay: Regression of HC2 20d2/c tumors in mice vaccinated with VEGF peptides; assay type: in vivo; conditions: FIG. 2; for reduction in average tumor volume: by the end of the study; for tumor regression (average tumor volume vs. time): mice injected with HC2 20d2/c tumor cells, vaccinated four days post-injection with peptide plus murine GM-CSF
Description: The VEGF peptides and the SEQ ID NO: 85 homodimer were evaluated for their ability to elicit an anti-tumor immune response in a mouse tumor model. A total of 112 syngeneic mice were divided into eight treatment groups of 14 mice each, and injected with HC2 20d2/c tumor cells. Four days post-injection, the first through fifth treatment groups were vaccinated in the left inguinal area with 100 μg of either SEQ ID NO: 73, SEQ ID NO: 75, SEQ ID NO: 77, SEQ ID NO: 79, or the SEQ ID NO: 81 dimer diluted in 100 μl of PBS mixed with 45 ng of murine GM-CSF as an adjuvant. The total volume of phosphate buffered saline (PBS) was 150 microliters with 2 mg/ml mouse serum albumin as a carrier. The sixth treatment group was vaccinated as above with a combination of all four VEGF peptides and the SEQ ID NO: 81 homodimer (60 μg each) in a total of 200 microliters of PBS with 45 ng of murine GM-CSF and 2 mg/ml mouse serum albumin. The seventh treatment group was vaccinated as above with 100 μg of a peptide derived from a mutant epidermal growth factor receptor (EGFR) protein called EGFRvIII (SEQ ID NO: 82). The vaccine composition also contained 45 ng of murine GM-CSF and 2 mg/ml mouse serum albumin. The EGFRvIII mutation is the result of a genomic rearrangement in the EGFR gene, and the EGFRvIII peptide (SEQ ID NO: 82) is reported to induce an immune response against tumor cells expressing the mutant receptor. The eighth treatment group was vaccinated with GM-CSF and 2 mg/ml mouse serum albumin in PBS with no peptide, as a control. All treatment groups were then injected once daily for the next 3 days with the 45 ng GM-CSF in the original area of vaccination.

[2] = splenocytes of immunized mice which had undergone tumor regression, target cells pulsed with the vaccinating peptide

V V K Q L V Q T P P L P P (VVKQLVQTPPLPP; VEGFB alt splice #1 peptide) [SEQ ID NO: 75, peptide encoded by alternatively spliced murine VEGFB mRNA]
CTL response compared with mouse treated with SEQ ID NO: 82 (EGFRvIII) [1]: greater than that seen for the mouse treated with SEQ ID NO: 82
CTL response (ELISPOT) [1, 2]: strong CTL responses
time until which regression is seen (HC2 20d2/c tumor cells; HC2 20d2/c tumor model): ~20 days after vaccination
tumor progression (HC2 20d2/c tumor cells; HC2 20d2/c tumor model): progress from that point onward

L E R S E S C E D R C P (LERSESCEDRCP; VEGFD alt splice #2 peptide) [SEQ ID NO: 79, peptide encoded by alternatively spliced murine VEGFD mRNA]
reduction in average tumor volume (HC2 20d2/c tumor cells; HC2 20d2/c tumor model): strong reduction in average tumor volumes

SEQ ID NO: 82: peptide derived from a mutant epidermal growth factor receptor (EGFR) protein called EGFRvIII (LEEKKGNYVVTDHC; EGFRvIII peptide) [reference compound]
tumor progression (HC2 20d2/c tumor cells; HC2 20d2/c tumor model): progression was not as dramatic as the control mice
duration of initial tumor progression (HC2 20d2/c tumor cells; HC2 20d2/c tumor model, after vaccination): approximately 5 days
tumor regression (average tumor volume vs. time) (HC2 20d2/c tumor cells): distinct regression noted thereafter

R T K P E K C D K P R R (RTKPEKCDKPRR; VEGF alt splice #1) [SEQ ID NO: 73, peptide encoded by alternatively spliced mouse VEGF mRNA]
CTL response compared with mouse treated with SEQ ID NO: 82 (EGFRvIII) [1]: greater than that seen for the mouse treated with SEQ ID NO: 82
CTL response (ELISPOT) [1, 2]: strong CTL responses
CTL response (ELISPOT) ([1]; splenocytes of vaccinated mouse which had not undergone tumor regression): poor CTL responses
tumor regression (average tumor volume vs. time) (HC2 20d2/c tumor cells): pattern of regression similar to that found for the EGFRvIII peptide

RTKPEKCDKPRRC (disulfide I:13-II:13; cysteine pairing not given here) [SEQ ID NO: 81 homodimer]
time at which tumor regression is most notable (HC2 20d2/c tumor cells; HC2 20d2/c tumor model): 12 days after vaccination
time until which regression is seen (HC2 20d2/c tumor cells; HC2 20d2/c tumor model): ~20 days after vaccination
tumor progression (HC2 20d2/c tumor cells; HC2 20d2/c tumor model): initially shows tumor progression
tumor progression (HC2 20d2/c tumor cells; HC2 20d2/c tumor model, listed as SEQ ID NO: 81): progress from that point onward
reduction in average tumor volume (HC2 20d2/c tumor cells; HC2 20d2/c tumor model): strong reduction in average tumor volumes
tumor regression (average tumor volume vs. time) (HC2 20d2/c tumor cells): induce tumor regression to some degree
